Values after ≈ are worked out from the molar mass of the structure shown.
Experiments:
Type in all cases: functional
[1] = tested on: Mycobacterium tuberculosis; test: Antimycobacterial activity against multi drug resistant Mycobacterium tuberculosis 9449/2006 after 21 days; conditions: 9449/2006, 504 h
[2] = tested on: Mycobacterium tuberculosis; test: Antimycobacterial activity against multi drug resistant Mycobacterium tuberculosis Praha 4 after 14 days; conditions: Praha 4, 336 h
[3] = tested on: Mycobacterium tuberculosis; test: Antimycobacterial activity against multi drug resistant Mycobacterium tuberculosis 234/2005 after 14 days; conditions: 234/2005, 336 h
[4] = tested on: Mycobacterium tuberculosis; test: Antimycobacterial activity against multi drug resistant Mycobacterium tuberculosis Praha 1 after 21 days; conditions: Praha 1, 504 h
[5] = tested on: Mycobacterium tuberculosis; test: Antimycobacterial activity against multi drug resistant Mycobacterium tuberculosis 7357/1998 after 14 days; conditions: 7357/1998, 336 h
[6] = tested on: Mycobacterium tuberculosis; test: Antimycobacterial activity against multi drug resistant Mycobacterium tuberculosis 234/2005 after 21 days; conditions: 234/2005, 504 h
[7] = tested on: Mycobacterium tuberculosis; test: Antimycobacterial activity against multi drug resistant Mycobacterium tuberculosis 7357/1998 after 21 days; conditions: 7357/1998, 504 h
[8] = tested on: Mycobacterium tuberculosis; test: Antimycobacterial activity against multi drug resistant Mycobacterium tuberculosis Praha 4 after 21 days; conditions: Praha 4, 504 h
[9] = tested on: Mycobacterium tuberculosis; test: Antimycobacterial activity against multi drug resistant Mycobacterium tuberculosis 8666/2010 after 21 days; conditions: 8666/2010, 504 h
[10] = tested on: Mycobacterium tuberculosis; test: Antimycobacterial activity against multi drug resistant Mycobacterium tuberculosis 8666/2010 after 14 days; conditions: 8666/2010, 336 h
[11] = tested on: Mycobacterium tuberculosis; test: Antimycobacterial activity against multi drug resistant Mycobacterium tuberculosis 9449/2006 after 14 days; conditions: 9449/2006, 336 h
[12] = tested on: Mycobacterium tuberculosis; test: Antimycobacterial activity against multi drug resistant Mycobacterium tuberculosis Praha 1 after 14 days; conditions: Praha 1, 336 h

Structure (SMILES)	MIC [1]	MIC [2]	MIC [3]	MIC [4]	MIC [5]	MIC [6]	MIC [7]	MIC [8]	MIC [9]	MIC [10]	MIC [11]	MIC [12]
O=C(Nc1ccccc1)Oc1ccc(Cl)cc1C(=O)Nc1ccc(C(F)(F)F)cc1	1 µM (≈ 0.435 µg/mL)	0.5 µM (≈ 0.217 µg/mL)	1 µM (≈ 0.435 µg/mL)	1 µM (≈ 0.435 µg/mL)	0.5 µM (≈ 0.217 µg/mL)	1 µM (≈ 0.435 µg/mL)	1 µM (≈ 0.435 µg/mL)	1 µM (≈ 0.435 µg/mL)	1 µM (≈ 0.435 µg/mL)	0.5 µM (≈ 0.217 µg/mL)	1 µM (≈ 0.435 µg/mL)	0.5 µM (≈ 0.217 µg/mL)
O=C(NC12CC3CC(CC(C3)C1)C2)Oc1ccc(Cl)cc1C(=O)Nc1ccc(C(F)(F)F)cc1	1 µM (≈ 0.493 µg/mL)	0.5 µM (≈ 0.246 µg/mL)	1 µM (≈ 0.493 µg/mL)	1 µM (≈ 0.493 µg/mL)	0.5 µM (≈ 0.246 µg/mL)	1 µM (≈ 0.493 µg/mL)	1 µM (≈ 0.493 µg/mL)	1 µM (≈ 0.493 µg/mL)	1 µM (≈ 0.493 µg/mL)	0.5 µM (≈ 0.246 µg/mL)	1 µM (≈ 0.493 µg/mL)	0.5 µM (≈ 0.246 µg/mL)
O=C(NCCc1ccccc1)Oc1ccc(Cl)cc1C(=O)Nc1ccc(C(F)(F)F)cc1	2 µM (≈ 0.926 µg/mL)	2 µM (≈ 0.926 µg/mL)	2 µM (≈ 0.926 µg/mL)	1 µM (≈ 0.463 µg/mL)	1 µM (≈ 0.463 µg/mL)	2 µM (≈ 0.926 µg/mL)	2 µM (≈ 0.926 µg/mL)	2 µM (≈ 0.926 µg/mL)	2 µM (≈ 0.926 µg/mL)	2 µM (≈ 0.926 µg/mL)	2 µM (≈ 0.926 µg/mL)	1 µM (≈ 0.463 µg/mL)
O=C(NC1CCCCC1)Oc1ccc(Cl)cc1C(=O)Nc1ccc(C(F)(F)F)cc1	1 µM (≈ 0.441 µg/mL)	0.5 µM (≈ 0.22 µg/mL)	0.5 µM (≈ 0.22 µg/mL)	1 µM (≈ 0.441 µg/mL)	0.5 µM (≈ 0.22 µg/mL)	1 µM (≈ 0.441 µg/mL)	1 µM (≈ 0.441 µg/mL)	1 µM (≈ 0.441 µg/mL)	1 µM (≈ 0.441 µg/mL)	0.5 µM (≈ 0.22 µg/mL)	0.5 µM (≈ 0.22 µg/mL)	0.5 µM (≈ 0.22 µg/mL)

— ChEMBL document CHEMBL4406824, “Phenolic N-monosubstituted carbamates: Antitubercular and toxicity evaluation of multi-targeting compounds” (Eur J Med Chem, 2019)
